According to the NIST ThermoML archive (doi:10.1016/j.jct.2014.04.014):
Numbers after ± are expanded uncertainties. Blank lines part the entries; values can stand above or below the compound they belong to.

Assay: wn = mass fraction of the nth substance listed
Settings: 273.15 K, 102.5 kPa, Liquid; for viscosity: Capillary tube (Ostwald / Ubbelohde) method; for mass density: Pycnometric method

viscosity (w1 = 0.2625): 2.16 ± 0.05 mPa·s
mass density (w1 = 0.2625): 1201 ± 1 kg/m3
SMILES: [Cl-].[Na+] [sodium chloride] + O

SMILES: O=[PH2][O-].[Na+] [sodium phosphinate] + O
viscosity (w1 = 0.478): 73.88 ± 1.9 mPa·s
mass density (w1 = 0.478): 1384 ± 1 kg/m3

viscosity (w1 = 0.666): 135.4 ± 4.5 mPa·s
mass density (w1 = 0.666): 1943 ± 3 kg/m3
SMILES: [Cl-].[Cl-].[Zn+2] [zinc chloride] + O

SMILES: O=[PH2][O-].O=[PH2][O-].[Zn+2] [zinc(II) phosphinate] + O
viscosity (w1 = 0.1379): 2.95 ± 0.06 mPa·s
mass density (w1 = 0.1379): 1069 ± 1 kg/m3
